Among the data in patent publication US7728016B2, “Substituted 5-membered ring compounds and their use” (Vernalis (Cambridge) Limited, priority 2003, dated 2010) are IC50 values, retold here.

As a reminder, the pIC50 is the negative decadic logarithm of the IC50, by convention in mol/L. The low end stands for a high IC50, the high end for a low IC50.

The structures appear in SMILES notation. pIC50: −log10 of the molar value. Where only a bound is given, the exact number is not on record here.

The target of the test is T1, human full-length HSP90 (Homo sapiens, UniProt P08238).
T1 construct: E. coli expressed human full-length HSP90 protein; made in house; host or cells: E. coli
T1 sequence (P08238 whole entry): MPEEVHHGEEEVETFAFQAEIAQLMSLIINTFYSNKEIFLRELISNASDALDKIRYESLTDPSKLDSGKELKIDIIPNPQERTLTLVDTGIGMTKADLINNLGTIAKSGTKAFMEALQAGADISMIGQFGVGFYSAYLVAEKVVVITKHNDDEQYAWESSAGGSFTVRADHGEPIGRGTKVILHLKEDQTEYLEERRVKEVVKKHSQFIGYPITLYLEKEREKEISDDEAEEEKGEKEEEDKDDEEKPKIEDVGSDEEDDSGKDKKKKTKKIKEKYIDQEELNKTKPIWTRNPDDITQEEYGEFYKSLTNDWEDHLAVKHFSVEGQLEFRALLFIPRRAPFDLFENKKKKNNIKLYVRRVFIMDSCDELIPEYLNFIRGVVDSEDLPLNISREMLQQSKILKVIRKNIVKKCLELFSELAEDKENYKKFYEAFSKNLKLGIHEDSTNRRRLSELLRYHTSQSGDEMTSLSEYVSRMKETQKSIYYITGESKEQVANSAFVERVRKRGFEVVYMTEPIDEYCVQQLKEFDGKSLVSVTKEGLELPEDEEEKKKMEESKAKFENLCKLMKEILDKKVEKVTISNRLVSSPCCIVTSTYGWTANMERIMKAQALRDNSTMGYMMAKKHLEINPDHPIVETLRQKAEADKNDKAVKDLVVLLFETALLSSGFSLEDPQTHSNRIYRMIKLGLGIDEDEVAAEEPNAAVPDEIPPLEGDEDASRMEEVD
The test is described as follows: Fluorescence polarization assay (competitive displacement of probe RBT0045864-FAM from HSP90). It counts as binding. The following applies: fluorescence polarisation assay, E. coli expressed human full-length HSP90, probe 80 nM. The text has this:
A fluorescence polarization assay was employed for the evaluation of some of the compounds of the Examples:
Fluorescence Polarization Assay
Fluorescence polarization {also known as fluorescence anisotropy} measures the rotation of a fluorescing species in solution, where the larger molecule the more polarized the fluorescence emission. When the fluorophore is excited with polarized light, the emitted light is also polarized. The molecular size is proportional to the polarization of the fluorescence emission.
The fluoroscein-labelled probe—RBT0045864-FAM—
[drawing 25] binds to HSP90 {full-length human, full-length yeast or N-terminal domain HSP90} and the anisotropy {rotation of the probe:protein complex} is measured.
Test compound is added to the assay plate, left to equilibrate and the anisotropy measured again. Any change in anisotropy is due to competitive binding of compound to HSP90, thereby releasing probe.
Chemicals are of the highest purity commercially available and all aqueous solutions are made up in AR water. • 1) Costar 96-well black assay plate #3915 • 2) Assay buffer of (a)100 mM Tris pH7.4; (b) 20 mM KCl; (c) 6 mM MgCl2. Stored at room temperature. • 3) BSA (bovine serum albumen) 10 mg/ml (New England Biolabs #B9001S) • 4) 20 mM probe in 100% DMSO stock concentration. Stored in the dark at RT. Working concentration is 200 nM diluted in AR water and stored at 4° C. Final concentration in assay 80 nM. • 5) E. coli expressed human full-length HSP90 protein, purified >95% (see, e.g., Panaretou et al., 1998) and stored in 50 μL aliquots at −80° C. Protocol • 1) Add 100 μl 1× buffer to wells 11A and 12A (=FP BLNK) • 2) Prepare assay mix—all reagents are kept on ice with a lid on the bucket as the probe is light-sensitive.
• 3) Aliquot 100 μl assay mix to all other wells • 4) Seal plate and leave in dark at room temp for 20 minutes to equilibrate Compound Dilution Plate—1×3 Dilution Series • 1) In a clear 96-well v-bottom plate—{#VWR 007/008/257} add 10 μl 100% DMSO to wells B1 to H11 • 2) To wells A1 to A11 add 17.5 μl 100% DMSO • 3) Add 2.5 μl cpd to A1. This gives 2.5 mM {50×} stock cpd—assuming cpds 20 mM. • 4) Repeat for wells A2 to A10. Control in columns 11 and 12. • 5) Transfer 5 μl from row A to row B—not column 12. Mix well. • 6) Transfer 5 μl from row B to row C. […] In column 11 {provides standard curve} only add compound B11-H11. Add 2 μl of 100 mM standard cpd to wells B12-H12 {is positive control} • 13) The Z′ factor is calculated from zero controls and positive wells. It typically gives a value of 0.7-0.9.
The compounds tested in the above assay were assigned to one of two activity ranges, namely A=<10 μM; B=>10 μM, and those assignments are reported above.
For orientation: Fluorescence polarisation rises when a labelled molecule tumbles more slowly, as on binding a larger partner.
Turning to `Oc1ccc(-c2csc(-c3c[nH]c4ccccc34)n2)c(O)c1` [(i)], the pIC50 was < 5.00. For `Oc1ccc(C2NN=C(Cc3ccccc3)S2)c(O)c1` (centres unmarked) [(ii)], the pIC50 is < 5.00. As for `Oc1ccc(-c2nnc(S)n2-c2cccc3ccccc23)c(O)c1` [(iii)], the negative logarithm of the IC50 (pIC50) was > 5.00. `Cc1ccccc1-n1c(S)nnc1-c1ccc(O)cc1O` [(iv)]: the pIC50 was > 5.00.

Regarding `COc1ccc(OC)c(-n2c(S)nnc2-c2ccc(O)cc2O)c1` [(v)], the pIC50 was > 5.00. As for `O=C(O)c1nnn(-c2ccc(O)cc2O)c1-c1ccc(F)cc1` [Example 1, 1-(2,4-Dihydroxy-phenyl)-5-(4-fluoro-phenyl)-1H-[1,2,3]triazole-4-carboxylic acid], the pIC50 was < 5.00. For `CCOC(=O)c1nnn(-c2ccc(O)cc2O)c1-c1ccc(F)cc1` [Example 2, 1-(2,4-Dihydroxy-phenyl)-5-(4-fluoro-phenyl)-1H-[1,2,3]triazole-4-carboxylic acid ethyl ester] the value was < 5.00. In the case of `CCOC(=O)c1nnn(-c2cc(Cl)c(O)cc2O)c1-c1ccc(F)cc1` [Example 3, 1-(5-Chloro-2,4-dihydroxy-phenyl)-5-(4-fluoro-phenyl)-1H-[1,2,3]triazole-4-carboxylic acid ethyl ester], the negative logarithm of the IC50 (pIC50) was > 5.00.
